Legend:
ELIC T28D = ELIC T28D (Dickeya chrysanthemi, UniProt P0C7B7, INS163G/T28D); experiment: biochemical; type: binding, Erwinia chrisanthemi; conditions: read-out: Keff
ELIC WT = ELIC WT (Dickeya chrysanthemi, UniProt P0C7B7, INS163G); experiment: biochemical; type: binding, Erwinia chrisanthemi; conditions: ITC, ELIC WT in detergent (UDM), 4°C, single-site isotherm; read-out: effective dissociation constant (Keff)

In the case of CC(=O)OCC[N+](C)(C)C [acetylcholine], the Kd (ELIC T28D) is reported as 2000 µM and the Kd (ELIC WT) is reported as 2500 µM.

Source: PMC4778918, “Signal Transduction at the Domain Interface of Prokaryotic Pentameric Ligand-Gated Ion Channels” (PLoS Biology, 2016)
